The text below walks through data of publication PMC5808361 (Journal of Medicinal Chemistry, 2017).

Structures are written as SMILES. Like-named read-outs stand apart in the source and are kept apart here. A value given as a limit tells only on which side of the number the result lay.

Assay [1] addresses PRMT3 (Homo sapiens, UniProt O60678). The assay can be described thus: PRMT3 biochemical assay.
For assay [2], the system named is 31 other lysine methyltransferases, arginine methyltransferases, and DNA and RNA methyltransferases. Description: Methyltransferase selectivity assays. It is filed as biochemical. Particulars: compound concentrations of 1, 5, and 20 μM.
Assay [3] concerns 55 protein targets (47 GPCRs, five ion channels, and three transporters). The assay can be described thus: CEREP selectivity panel. In kind it is binding. Particulars: at 10 μM.
In assay [4] the target is human Flag-tagged PRMT3 (Homo sapiens, UniProt O60678). Description: Cellular PRMT3 assay. In kind it is cell-based.
Sequence of human Flag-tagged PRMT3 (O60678 whole entry): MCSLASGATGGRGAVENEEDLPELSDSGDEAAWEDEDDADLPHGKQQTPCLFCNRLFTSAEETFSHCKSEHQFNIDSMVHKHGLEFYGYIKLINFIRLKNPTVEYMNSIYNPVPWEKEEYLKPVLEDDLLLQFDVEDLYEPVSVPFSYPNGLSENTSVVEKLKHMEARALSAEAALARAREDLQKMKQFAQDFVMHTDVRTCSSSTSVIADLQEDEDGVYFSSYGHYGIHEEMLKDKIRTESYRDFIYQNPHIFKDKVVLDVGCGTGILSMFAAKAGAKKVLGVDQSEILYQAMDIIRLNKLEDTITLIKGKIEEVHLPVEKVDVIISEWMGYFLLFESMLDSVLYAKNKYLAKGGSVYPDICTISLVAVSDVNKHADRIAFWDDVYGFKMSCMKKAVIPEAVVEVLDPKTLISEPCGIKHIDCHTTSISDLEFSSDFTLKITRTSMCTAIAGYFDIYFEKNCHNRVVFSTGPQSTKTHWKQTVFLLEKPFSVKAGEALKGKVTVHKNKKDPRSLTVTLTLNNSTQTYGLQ

Sequence of PRMT3 (O60678 whole entry): as above

Take `CN1CCN(C(=O)CNC(=O)Nc2ccc3cnccc3c2)CC1` [Compound 18, 1-(Isoquinolin-6-yl)-3-(2-(4-methylpiperazin-1-yl)-2-oxoethyl)urea]: the “PRMT3 inhibitory activity (in words)” value in assay [1] (PRMT3 biochemical assay) is given as “loss of the inhibitory activity”. In the case of `CON(C)C(=O)CNC(=O)Nc1ccc2cnccc2c1` [Compound 22, 2-(3-(Isoquinolin-6-yl)ureido)-N-methoxy-N-methylacetamide], in assay [1] (PRMT3 IC50 relative to compound 5), the “fold less potent than 5” value was “around 6 fold”.

For `O=C(NCC(=O)N1CC(F)(F)C(F)(F)C1)Nc1ccc2cnccc2c1` [Compound 29, 1-(Isoquinolin-6-yl)-3-(2-oxo-2-(3,3,4,4-tetrafluoropyrrolidin-1-yl)ethyl)urea], in assay [2], the “selectivity for PRMT3 over 31 other methyltransferases (in words)” value is given as “highly selective for PRMT3”. Also, the “% of inhibition (off-target activities)” value in assay [3] was < 50%. In assay [4] (1 μM compound, compared with catalytically dead PRMT3 mutant E335Q), the “effect on H4R3me2a levels (in words)” value is recorded as “matched with that of the catalytically dead PRMT3 mutant E335Q”.

Consider `CC1CCC(C)N1C(=O)CNC(=O)Nc1ccc2cnccc2c1` (stereo not drawn) [Compound 30, 1-(2-(2,5-Dimethylpyrrolidin-1-yl)-2-oxoethyl)-3-(isoquinolin-6-yl)urea], for which the “% of inhibition (off-target activities)” value in assay [3] was < 50%. As for `O=C(NCC(=O)N1CCCC1)Nc1cc2ccncc2cc1F` [Compound 36, 1-(7-Fluoroisoquinolin-6-yl)-3-(2-oxo-2-(pyrrolidin-1-yl)ethyl)urea], the “selectivity for PRMT3 over 31 other methyltransferases (in words)” value in assay [2] is “highly selective for PRMT3”. Besides, the “% of inhibition (off-target activities)” value in assay [3] was < 50%. Besides, the “effect on H4R3me2a levels (in words)” value in assay [4] was “matched with that of the catalytically dead PRMT3 mutant E335Q”.
